Each structure is given as a SMILES string. Read-outs that look alike come from different tables or passages of the source.

Results on 32 compounds are retold here after patent publication US7589220B2, “Inhibitors of the anandamide transporter” (priority 1998, dated 2009).

Test [1] relates to anandamide transporter. The test is described as follows: [3H]anandamide competition assay using a high throughput method. The test is classed as cell-based, human.
In test [2] the test system is anandamide transporter. Description: substrate translocation of radioactively labeled analogs (FIGS. 1 and 2). Details: dose or concentration left out as unconfirmed. The test is classed as cell-based. The note with it: radioactively labeled compounds.
Test [3] deals with anandamide transporter. The test is described as follows: [3H]anandamide accumulation in neurons. The test is classed as cell-based, rat.
Test [4] relates to anandamide transporter. Description: [3H]anandamide accumulation in cortical astrocytes in culture. The following applies: for prevention of the temperature-sensitive component of [3H]anandamide accumulation: cortical astrocytes in culture; for effect on [3H]anandamide accumulation: cortical astrocytes. The test is classed as cell-based, rat.
Test [5] concerns PGE2 carrier. The test is described as follows: [3H]PGE2 accumulation in neurons or astrocytes. The test is classed as cell-based. An excerpt:
The bromcresol green, which blocks PGE2 transport, raised the question of whether anandamide accumulation occurred by means of a PGE2 carrier. That this is not the case was shown by the lack of [^3H]PGE2 accumulation in neurons or astrocytes and by the inability of PGE2 to interfere with [^3H]anandamide accumulation.

For test [6], the target named is T1, rat cerebral membranes (Rattus norvegicus, UniProt P20272).
T1 construct: from tissue; host or cells: rat cerebral membranes
Description: binding of [3H]WIN-55212-2 to rat cerebral membranes.

The subject of test [7] is astrocytes. Description: uptake of [3H]arachidonate in astrocytes. The test is classed as cell-based.
Test [8] concerns astrocytes. The test is described as follows: uptake of [3H]ethanolamine in astrocytes. The test is classed as cell-based.
[9] abbreviates: Table II, anandamide transporter inhibition, read-out: IC50 (AT inhib.) μM).
Where [10] appears, read: Table I, affinity for ligand recognition by the anandamide transporter.
Where [11] appears, read: read-out: IC50 (AT inhib.) μM), Table II, anandamide transporter inhibition.
Setting [12] is: astrocytes, single high-affinity component.

T1 sequence (P20272 whole entry): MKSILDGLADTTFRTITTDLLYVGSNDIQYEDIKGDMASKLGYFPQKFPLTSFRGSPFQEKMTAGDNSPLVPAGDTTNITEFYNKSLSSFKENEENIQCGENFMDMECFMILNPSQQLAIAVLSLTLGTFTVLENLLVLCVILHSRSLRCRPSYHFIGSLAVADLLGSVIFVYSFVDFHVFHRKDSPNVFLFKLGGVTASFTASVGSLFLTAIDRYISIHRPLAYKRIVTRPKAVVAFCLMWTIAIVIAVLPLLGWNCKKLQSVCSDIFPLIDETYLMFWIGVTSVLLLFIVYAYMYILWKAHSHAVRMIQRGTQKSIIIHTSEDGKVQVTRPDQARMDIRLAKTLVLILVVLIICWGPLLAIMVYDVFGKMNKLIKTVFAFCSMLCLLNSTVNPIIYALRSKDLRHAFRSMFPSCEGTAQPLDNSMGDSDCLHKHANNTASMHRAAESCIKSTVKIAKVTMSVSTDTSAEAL

Take `CCCCC/C=C\C/C=C\C/C=C\C/C=C\CCCC(=O)Nc1nccs1` [Compound 17]: the IC50 in test [1] (setting [9]) stood at 1.7 µM. In the case of `CCCCC/C=C\C/C=C\C/C=C\C/C=C\CCCC(=O)NC1=NCCS1` [Compound 18], in test [1] (setting [9]), the IC50 stood at 2.8 µM.

For `CCCCC/C=C\C/C=C\C/C=C\C/C=C\CCCC(=O)OC1COC(c2ccccc2)OC1` (centres unmarked) [AM1191], in test [1] (setting [10]), the IC50 was 0.8 µM. Also, in test [2], the “transport (translocation) compared with [3H]anandamide” value was “transported as rapidly and effectively as”.

In the case of `CCCCC/C=C\C/C=C\C/C=C\C/C=C\CCCC(=O)Nc1nc2ccccc2s1` [Compound 20], the half-maximal inhibitory concentration (IC50) in test [1] (setting [9]) turned out to be 44.2 µM. On to `CCCCCC=CCC=CCC=CCC=CCCCCNC(=O)OCC(C)O` (centres unmarked) [Compound 16], for which, in test [1] (setting [11]), the half-maximal inhibitory concentration (IC50) came out at 3.29 µM. In the case of `CCCCCC=CCC=CCC=CCC=CCCCCOC(=O)NC1=NCCS1` [Compound 10], in test [1] (setting [9]), the 50% inhibitory concentration (IC50) came to 8.6 µM. For the compound `CCCCCC=CCC=CCC=CCC=CCCCCOC(=O)NC(C)CO` (centres unmarked) [Compound 2], in test [1] (setting [11]), the concentration for half-maximal inhibition (IC50) was 6.4 µM. Take `CCCCCC=CCC=CCC=CCC=CCCCCOC(=O)NC(C)CO` (centres unmarked) [Compound 1]: in test [1] (setting [11]), the IC50 came to 7.1 µM. Consider `CCCCC/C=C\C/C=C\C/C=C\C/C=C\CCCC(=O)NCCO` [anandamide, Arachidonyl ethanolamide], for which the “time to reach 50% of maximum accumulation” value in test [3] (neurons and astrocytes) is recorded as “about four”. Further, the Vmax in test [3] (neurons, higher affinity component) is reported as 5.9 pmol/min per milligram of protein; in test [4] (setting [12]) it was 171 pmol/min per milligram of protein. In addition, the Km in test [3] (neurons, higher affinity component, read-out: Km) came out at 0.032 µM; in test [3] (neurons, lower affinity component, read-out: Michaelis constant, Km) it was 1.2 µM; in test [4] (setting [12]) it was 0.32 µM. In addition, the “maximum accumulation rate, Vmax” value in test [3] (neurons, lower affinity component) is reported as 90.9 pmol/min per milligram of protein. Besides, the “prevention of the temperature-sensitive component of [3H]anandamide accumulation” value in test [4] is reported as “prevented”. As to `CCCCC/C=C\C/C=C\C/C=C\C/C=C\CCCC(=O)Nc1nc(C)cs1` [Compound 23], the IC50 in test [1] (setting [9]) was found to be 11.2 µM. Take `CCCCC/C=C\C/C=C\C/C=C\C/C=C\CCCCNC(=O)C(C)C` [AM1177]: the 50% inhibitory concentration (IC50) in test [1] (setting [10]) turned out to be 5 µM. Besides, the “transport (translocation) compared with [3H]anandamide” value in test [2] is “transported as rapidly and effectively as”. Consider `CCCCCC=CCC=CCC=CCC=CCCCCOC(=O)NC1CCC1` [Compound 7], for which the IC50 in test [1] (setting [11]) came to 15.5 µM. For the compound `CCCCCC=CCC=CCC=CCC=CCCCCOC(=O)NCC(C)O` (centres unmarked) [Compound 3], the IC50 in test [1] (setting [11]) amounted to 1.5 µM.

Consider `Cc1c(C(=O)NN2CCCCC2)nn(-c2ccc(Cl)cc2Cl)c1-c1ccc(Cl)cc1.Cl` [SR-141716-A], for which the “displacement of the higher affinity component of [3H]anandamide accumulation” value in test [3] (neurons, 100 nM) is on record as “displaced”. Also, in test [4] (10 μM), the “effect on [3H]anandamide accumulation” value was “no effect”. Regarding `CCCCCC=CCC=CCC=CCC=CCCCCNC(=O)NCC(C)O` (centres unmarked) [Compound 12], the IC50 in test [1] (setting [11]) stood at 1.78 µM. For the compound `CCCCC[C@H](O)/C=C/[C@H]1[C@H](O)CC(=O)[C@@H]1C/C=C\CCCC(=O)O` [PGE2, prostaglandin E2], the “interference with [3H]anandamide accumulation” value in test [4] is reported as “inability”. For the same compound, the “accumulation of [3H]PGE2” value in test [5] is given as “lack”. For the compound `CCCCC/C=C\C/C=C\C/C=C\C/C=C\CCCC(=O)Nc1nc(C(C)(C)C)cs1` [Compound 25], the 50% inhibitory concentration (IC50) in test [1] (setting [9]) was 24.1 µM. In the case of `CCCCCC=CCC=CCC=CCC=CCCCCOC(=O)NC1CCCCC1` [Compound 8], the IC50 in test [1] (setting [11]) is 33 µM. In turn, `CCCCC/C=C\C/C=C\C/C=C\C/C=C\CCCNC(=O)c1ccc(O)cc1` [AM1172] showed an IC50 in test [1] (setting [10]) of 2 µM. In addition, in test [2], the “transport (translocation) compared with [3H]anandamide” value was “transported as rapidly and effectively as”. Take `CCCCC/C=C\C/C=C\C/C=C\C/C=C\CCCC(=O)Nc1ncc([N+](=O)[O-])s1` [Compound 22]: the IC50 in test [1] (setting [9]) came to 14.1 µM. On to `CCCCCC=CCC=CCC=CCC=CCCCCOC(=O)NCC(C)O` (centres unmarked) [Compound 4], for which the 50% inhibitory concentration (IC50) in test [1] (setting [11]) came out at 0.4 µM. In the case of `CCCCC/C=C\C/C=C\C/C=C\C/C=C\CCCC(=O)Nc1nncs1` [Compound 19], the IC50 in test [1] (setting [9]) stood at 1.5 µM. Turning to `CCCCCC=CCC=CCC=CCC=CCCCCOC(=O)NC1CC1` [Compound 6], in test [1] (setting [11]), the IC50 came to 15.5 µM.

Take `CCCCC/C=C\C/C=C\C/C=C\C/C=C\CCCC(=O)Nc1ccc(O)cc1` [AM404, N-(4-hydroxyphenyl)arachidonamide, reference compound]: in test [2], the “transport (translocation) compared with [3H]anandamide” value was “transported as rapidly and effectively as”. Turning to `CCCCC/C=C\C/C=C\C/C=C\C/C=C\CCCC(=O)Nc1nc(C)c(C)s1` [Compound 24], the IC50 in test [1] (setting [9]) stood at 26 µM. Consider `CCCCCC=CCC=CCC=CCC=CCCCCOC(=O)Nc1cccnc1` [Compound 11], for which the IC50 in test [1] (setting [11]) amounted to 16.1 µM. For the compound `CCCCCCCCCCCCCCCC(=O)NCCO` [palmitoyl ethanolamide], the “prevention of the temperature-sensitive component of [3H]anandamide accumulation” value in test [4] was “not”. As for `Cc1c(C2(c3cc(Br)c(O)c(Br)c3C)OS(=O)(=O)c3ccccc32)cc(Br)c(O)c1Br` [bromcresol green], the “mode of inhibition of [3H]anandamide accumulation” value in test [3] (neurons and astrocytes) is given as “noncompetitively”. In test [6], the “effect on the binding of [3H]WIN-55212-2” value is “no significant effect”. Moreover, the “effect on uptake of [3H]arachidonate” value in test [7] was “no significant effect”. The “effect on uptake of [3H]ethanolamine” value in test [8] is “no significant effect”. In the case of `Cc1c(C(=O)c2cccc3ccccc23)c2cccc3c2n1[C@H](CN1CCOCC1)CO3` [WIN-55212-2], the “effect on [3H]anandamide accumulation” value in test [4] (1 μM) is “no effect”. On to `CCCCCC=CCC=CCC=CCC=CCCCCOC(=O)NC(C)C` [Compound 5], for which the half-maximal inhibitory concentration (IC50) in test [1] (setting [11]) came out at 21.9 µM. Still for that read-out and setting: as for `CCCCCC=CCC=CCC=CCC=CCCCCOC(=O)Nc1ccc(O)cc1` [Compound 9], the figure is 6.6 µM.

For `CCCCC/C=C\C/C=C\C/C=C\C/C=C\CCCC(=O)Nc1nc(Br)cs1` [Compound 21], the IC50 in test [1] (setting [9]) was found to be 92.3 µM.

The term IC50 denotes the concentration that gives 50% inhibition. One may read the Km as the substrate concentration at which the rate is half of its maximum.
